Laboratory results as given in paper PMC10175918 (Communications Biology, 2023).
Read-outs that look alike come from different tables or passages of the source.

Tests used:
Test in all cases: TGFα-shedding assay-based GPCR screening with chimeric Gα subunit proteins
Format in all cases: cell-based
[1] = molecular target: T1, 348 GPCRs (Homo sapiens, UniProt P37288)
T1 construct: expressed in transfected cells; host or cells: HEK293A

[2] = molecular target: T2, 348 GPCRs (Homo sapiens, UniProt Q9NS75)
T2 construct: expressed in transfected cells; host or cells: HEK293A
T2 sequence (Q9NS75 1-346): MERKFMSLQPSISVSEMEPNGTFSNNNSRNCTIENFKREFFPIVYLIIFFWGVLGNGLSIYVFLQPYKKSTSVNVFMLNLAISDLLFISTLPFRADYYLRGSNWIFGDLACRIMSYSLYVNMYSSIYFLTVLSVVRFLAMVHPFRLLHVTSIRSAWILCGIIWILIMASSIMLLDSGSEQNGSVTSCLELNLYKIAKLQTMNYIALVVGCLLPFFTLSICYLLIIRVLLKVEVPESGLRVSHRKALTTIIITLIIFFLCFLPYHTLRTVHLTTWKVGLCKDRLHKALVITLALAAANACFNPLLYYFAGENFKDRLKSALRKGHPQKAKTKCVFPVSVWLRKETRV

[3] = molecular target: T3, 348 GPCRs (Homo sapiens, UniProt Q96RI9); conditions: 10µM, Favipiravir 100μM
T3 construct: expressed in transfected cells; host or cells: HEK293A
T3 sequence (Q96RI9 1-348): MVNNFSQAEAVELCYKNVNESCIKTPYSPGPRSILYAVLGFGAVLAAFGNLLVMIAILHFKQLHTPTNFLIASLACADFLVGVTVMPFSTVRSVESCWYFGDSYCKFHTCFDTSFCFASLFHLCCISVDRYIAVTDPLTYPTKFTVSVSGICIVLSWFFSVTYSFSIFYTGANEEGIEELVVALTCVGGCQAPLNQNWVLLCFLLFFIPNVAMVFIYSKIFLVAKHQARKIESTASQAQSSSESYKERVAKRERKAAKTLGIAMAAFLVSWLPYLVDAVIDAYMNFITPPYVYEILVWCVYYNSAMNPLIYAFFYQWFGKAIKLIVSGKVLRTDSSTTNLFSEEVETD

[4] = molecular target: T4, 348 GPCRs (Homo sapiens, UniProt Q8IZF2)
T4 construct: expressed in transfected cells; host or cells: HEK293A
T4 sequence (Q8IZF2 22-1346): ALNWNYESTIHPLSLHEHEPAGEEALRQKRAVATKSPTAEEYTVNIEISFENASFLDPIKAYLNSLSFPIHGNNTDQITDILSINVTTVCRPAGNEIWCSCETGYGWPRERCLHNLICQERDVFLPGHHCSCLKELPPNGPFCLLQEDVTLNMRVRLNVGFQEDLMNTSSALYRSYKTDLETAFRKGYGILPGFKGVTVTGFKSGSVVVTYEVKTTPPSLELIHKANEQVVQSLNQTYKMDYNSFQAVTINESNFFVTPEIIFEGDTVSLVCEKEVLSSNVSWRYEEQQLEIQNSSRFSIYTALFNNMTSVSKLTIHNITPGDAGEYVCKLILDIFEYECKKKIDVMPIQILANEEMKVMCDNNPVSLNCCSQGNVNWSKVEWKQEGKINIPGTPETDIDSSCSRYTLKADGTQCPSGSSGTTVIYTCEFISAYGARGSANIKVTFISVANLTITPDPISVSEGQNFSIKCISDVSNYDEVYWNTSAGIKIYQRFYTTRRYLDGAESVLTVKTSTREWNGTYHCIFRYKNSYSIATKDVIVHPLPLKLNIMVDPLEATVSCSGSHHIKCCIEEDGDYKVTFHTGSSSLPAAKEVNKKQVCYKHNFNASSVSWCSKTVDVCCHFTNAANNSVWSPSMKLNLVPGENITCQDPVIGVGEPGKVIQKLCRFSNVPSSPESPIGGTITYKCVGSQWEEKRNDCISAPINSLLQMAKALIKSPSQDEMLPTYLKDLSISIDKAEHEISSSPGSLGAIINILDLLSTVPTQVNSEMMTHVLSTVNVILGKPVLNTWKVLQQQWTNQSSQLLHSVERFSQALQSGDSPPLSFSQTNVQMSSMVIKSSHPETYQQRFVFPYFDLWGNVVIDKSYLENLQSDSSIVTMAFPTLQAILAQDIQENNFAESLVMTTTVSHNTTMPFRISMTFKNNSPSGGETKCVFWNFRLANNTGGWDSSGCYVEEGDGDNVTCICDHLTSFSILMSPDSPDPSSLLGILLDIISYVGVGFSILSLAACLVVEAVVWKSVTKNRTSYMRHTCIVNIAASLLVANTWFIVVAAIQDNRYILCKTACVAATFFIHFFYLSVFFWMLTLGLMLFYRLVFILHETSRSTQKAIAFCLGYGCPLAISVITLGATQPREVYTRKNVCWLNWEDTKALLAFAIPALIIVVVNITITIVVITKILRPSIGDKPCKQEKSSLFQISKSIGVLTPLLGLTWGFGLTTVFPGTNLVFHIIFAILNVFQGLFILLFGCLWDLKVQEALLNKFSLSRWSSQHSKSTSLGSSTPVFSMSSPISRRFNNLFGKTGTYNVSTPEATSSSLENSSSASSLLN

[5] = GPCR V1A (arginine vasopressin receptor 1A), read-out: % GPCR activation compared to TPA
[6] = GPCR CYSLTR2 (cysteinyl leukotriene receptor 2), read-out: % GPCR activation compared to TPA
[7] = TAAR9 (trace amine associated receptor 9), read-out: % GPCR activation compared to TPA
[8] = GPCR GPR116 (G-protein-coupled receptor 116 (ADGRF5)), read-out: % GPCR activation compared to TPA
[9] = read-out: % GPCR activation compared to TPA, GPCR V1A (arginine vasopressin receptor 1A)
[10] = read-out: % GPCR activation compared to TPA, GPCR CYSLTR2 (cysteinyl leukotriene receptor 2)
[11] = read-out: % GPCR activation compared to TPA, TAAR9 (trace amine associated receptor 9)
[12] = read-out: % GPCR activation compared to TPA, GPCR GPR116 (G-protein-coupled receptor 116 (ADGRF5))

T1 sequence (P37288 whole entry): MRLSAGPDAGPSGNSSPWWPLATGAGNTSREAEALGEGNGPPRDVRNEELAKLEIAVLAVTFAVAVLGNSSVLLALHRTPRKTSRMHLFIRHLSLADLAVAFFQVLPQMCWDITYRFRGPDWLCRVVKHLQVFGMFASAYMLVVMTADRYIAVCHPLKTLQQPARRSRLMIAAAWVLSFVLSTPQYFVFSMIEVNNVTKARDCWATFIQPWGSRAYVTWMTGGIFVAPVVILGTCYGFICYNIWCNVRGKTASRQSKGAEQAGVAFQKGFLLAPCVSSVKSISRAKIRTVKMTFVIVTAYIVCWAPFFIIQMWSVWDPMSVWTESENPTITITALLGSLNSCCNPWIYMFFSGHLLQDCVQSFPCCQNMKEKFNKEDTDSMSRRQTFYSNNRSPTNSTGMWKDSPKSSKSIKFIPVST

## N#C[C@@]1(c2ccc3c(N)ncnn23)O[C@H](CO)[C@@H](O)[C@H]1O [GS441524]
[1]; [5]
  activation at 10 µM: -0.48%
[2]; [6]
  activation at 10 µM: -1.21%
[3]; [7]
  activation at 100 µM: -2.32%
[4]; [8]
  activation at 10 µM: -2.91%

## CCC(CC)COC(=O)[C@H](C)N[P@](=O)(OC[C@H]1O[C@@](C#N)(c2ccc3c(N)ncnn23)[C@H](O)[C@@H]1O)Oc1ccccc1 [remdesivir]
[1]; [9]
  activation at 10 µM: 0.24%
[2]; [10]
  activation at 10 µM: -0.408%
[3]; [11]
  activation at 100 µM: 0.293%
[4]; [12]
  activation at 10 µM: -2.59%

## CC(C)OC(=O)[C@H](C)N[P@](=O)(OC[C@H]1O[C@@H](n2ccc(=O)[nH]c2=O)[C@](C)(F)[C@@H]1O)Oc1ccccc1 [sofosbuvir]
[1]; [9]
  activation at 10 µM: -0.512%
[2]; [10]
  activation at 10 µM: -0.91%
[3]; [11]
  activation at 100 µM: -1.74%
[4]; [12]
  activation at 10 µM: -0.621%

## NC(=O)c1nc(F)cnc1O [favipiravir, 6-fluoro-3-hydroxy-2-pyrazinecarboxamide]
[1]; GPCR V1A (arginine vasopressin receptor 1A), 100μM, read-out: % GPCR activation compared to TPA
  activation at 100 µM: 0.923%
[2]; GPCR CYSLTR2 (cysteinyl leukotriene receptor 2), 100μM, read-out: % GPCR activation compared to TPA
  activation at 100 µM: -1.33%
[3]; [7]
  activation at 100 µM: -0.821%
[4]; GPCR GPR116 (G-protein-coupled receptor 116 (ADGRF5)), 100μM, read-out: % GPCR activation compared to TPA
  activation at 100 µM: -1.79%

## CC(C)C(=O)OC[C@H]1O[C@@H](n2ccc(NO)nc2=O)[C@H](O)[C@@H]1O [molnupiravir]
[1]; [5]
  activation at 10 µM: 0.0613%
[2]; [6]
  activation at 10 µM: -0.187%
[3]; [7]
  activation at 100 µM: -1.9%
[4]; [8]
  activation at 10 µM: -2.23%
